Assays:
[1] = tested on: transferred CD8+ CD45.1+ OT1 T-cells; assay: Phenotype of adoptively transferred OT1 CD8+ T-cells in blood of B16-OVA tumor-bearing mice; format: in vivo, mouse
Description: Antibody panel to determine the frequency and differentiation and activation state of adoptively transferred T-cells in the blood (see Example 6): CD8-PE-texas-Red, CD45.1-Pacific blue, CD45.2-FITC, CD127-PE, KLRG1-PE-Cy7, CD62L-APC, CD44-APC-Cy7, and CD27-PerCP-Cy5.5.
(§1) Example 5. In vivo tumor model to characterize the phenotype and efficacy of cultured CD8+ T-cells upon adoptive cell transfer. An in vivo tumor model was used to determine the efficacy of in vitro cultured CD8+ T-cells treated with an IDH2 inhibitor in eliminating cancer cells (FIG. 10). B16-OVA melanoma cells (see Example 1) were cultured in DMEM (GIBCO) with 10% FCS and 1% P/S before their subcutaneous injection into the mouse flank. Each mouse received 100′000 cells in a volume of 200 μl of PBS. 6 days after B16-OVA cell injection, tumors were measured, mice were randomized and lymphodepleted by irradiation (5 Gray). 7 days after B16-Ova cell injection, mice were adoptively transferred with activated CD45.1^+ OT-1 splenocytes. The CD45.1^+ OT-1 splenocytes had been cultured in vitro for 7 days as described in Example 2, wherein the IDH2 inhibitor was AG221, collected and purified on a Ficoll gradient to separate dead and live splenocytes. Live splenocytes, almost exclusively consisting of CD8+ T-cells (about 98%), were counted with Trypan blue stain 0.4%. 100′000 live splenocytes were transferred into CD45.2^+ host mice by tail vein injection.
(§2) Following the adoptive cell transfer (ACT), mice received a vaccination of CpG (50 μg/mouse) and N4 Ova peptide (10 μg/mouse) diluted in PBS to obtain a total volume of 100 μl/mouse, injected subcutaneously at the tail base to further stimulate the transferred cells. An additional no-ACT control group received only a PBS injection (neither cells, CpG nor peptide). Tumors were measured every 2 days with a digital caliper and the tumor volume was calculated according to the formula: V=π×[d2×D]/6, wherein d is the smallest tumor axis and D is the largest tumor axis.
Example 6. Maintenance of the CD8+ T-cell memory phenotype in vivo. Blood samples were collected at day 14 and day 18 post tumor engraftment (see Example 5). […] Transferred CD8+ T-cells were CD8^+ and CD45.1^+. Among those, MPECs were KLRG1^low and CD127^+, SLECs were KLRG1^high and CD127^−, and TCM were CD44^+ and CD62L^+.

B16-OVA melanoma = assay: Tumor growth of B16-OVA tumors after adoptive transfer of inhibitor-treated OT1 T-cells; format: in vivo, mouse; settings: mice adoptively transferred with T-cells treated in vitro
Method: as §1, with “The CD45.1^+ OT-1 splenocytes had been cultured in vitro for 7 days as described in Example 2, wherein the IDH2 inhibitor was AG221, collected and purified on a Ficoll gradient to separate dead and live splenocytes.” left out, “100′000 live splenocytes were transferred into CD45.2^+ host mice by tail vein injection.” left out
as §2, with “An additional no-ACT control group received only a PBS injection (neither cells, CpG nor peptide).” left out

[2] = tested on: accessible chromatin regions in OT1 T-cells; assay: ATAC-seq of OT1 T-cells; format: cell-based, mouse; settings: day 7, 5 μM day 0-3, compared to DMSO-treated T-cells
Method: Methods: OT1 splenocytes were activated and cultured with 5 μM AG221 or DMSO as described in Example 2. After 3 days, the cells were washed and the IDH2 inhibitor was washed out as well. The cells were then cultured for an additional 4 days in the absence of AG221. At day 7, the cells were collected and washed once with PBS. 50′000 cells were collected for ATAC-seq while the remaining cell pellet was lysed in extraction buffer (20 mM Tris HCl, 150 mM NaCl, 1% Triton X-100, 10% glycerol, 5 mM EDTA) supplemented with Complete Mini protease inhibitor (Roche) for wester blotting.
For ATAC-seq cells were transposed with the Illumina Tagment DNA Enzyme and Buffer Small Kit according to the protocol described by Buenrostro et al. (Curr Protoc Mol Biol. 2015 Jan 5;109:21.29.1-21.29.9.). Fragments were sequenced on an Illumina NextSeq 500 instrument.

[3] = tested on: human CD4 T cells (CD3-positive/CD8-negative); assay: CD62L expression in whole culture and in CD4 T cells, human culture (FIG. 16); format: cell-based
Description: FIG. 16: Phenotypic analysis of human bulk PBMC at day 11 post in vitro activation. (A,B) Quantification of flow cytometry analysis at day 11 post-activation showing the percentage of CD62L+ CD8 T cells in the CD3/CD8 double positive T cell population (A) or in all living cells (B) from a culture of PBMCs treated with AKTi (MK2206), IDH2i (AG221) or DMSO control. (C,D) Quantification of flow cytometry analysis at day 11 post-activation showing the percentage of CD62L+ CD4 T cells in the CD3-positive/CD8-negative T cell population (C) or in all living cells (D). (E,F) Quantification of flow cytometry analysis at day 11 post-activation showing the percentage of CD8 T cells (E, identified as CD3/CD8 double positive) and CD4 T cells (F, identified as CD3-positive/CD8-negative) in all living cells of a culture of PBMCs treated with AKTi (MK2206), IDH2i (AG221) or DMSO control. *p<0.05, compared to DMSO Graphs show mean±SEM.
The previously obtained data has undergone additional analyses, in order to obtain more insight in CD62L expression in the whole culture as well as in CD4 T cells. In the human figure A and B, we now clearly made the distinction between CD62L expression as percentage out of CD8 T cells (FIG. 16A) or out of all living cells in the culture (FIG. 16 B).
As mentioned before, about 98% of the cells in culture on day 11 are CD3-positive. Since CD3 is exclusively expressed on CD4 and CD8 T cells, we can deduct that all CD3-positive, CD8-negative must be CD4 T cells. When analyzing the CD3-pos/CD8-neg population we observed that CD62L expression is induced upon AG221 treatment, both when expressed as percentage out of CD4 T cells (FIG. 16 C) and as percentage out of total living cells (FIG. 16 D). […] This can be explained by our observation that AKT inhibition favors CD8 T cell differentiation over CD4 T cell differentiation. This ratio remains unchanged upon AG221-treatment, as compared to DMSO control (FIG. 16 E and F).

[4] = day 14, compared to DMSO control

## CC(C)(O)CNc1nc(Nc2ccnc(C(F)(F)F)c2)nc(-c2cccc(C(F)(F)F)n2)n1 [AG221, 2-methyl-1-[[4-[6-(trifluoromethyl)pyridin-2-yl]-6-[[2-(trifluoromethyl)pyridin-4-yl]amino]-1,3,5-triazin-2-yl]amino]propan-2-ol]
[1]; day 14 (day 7 post ACT), cells treated in vitro before ACT, versus DMSO
  frequency of transferred T-cells: significantly higher
[1]; [4]
  proportion of central memory T cells (TCM) within transferred CD8+ T-cells: significantly higher
  proportion of memory precursor effector cells (MPECs) within transferred CD8+ T-cells: significantly higher
  proportion of short-lived effector cells (SLECs) within transferred CD8+ T-cells: significantly lower
B16-OVA melanoma
  tumor burden, in particular tumor growth: significantly reduced
[2]
  more accessible regions in the DNA (ATAC-seq): 1633
[3]; day 11, compared to DMSO control
  CD8 T cell versus CD4 T cell differentiation (ratio in all living cells): unchanged
[3]; day 11, versus DMSO
  CD62L expression in CD3-pos/CD8-neg population, as percentage out of CD4 T cells: induced
  CD62L+ CD4 T cells as percentage out of total living cells: induced

Reference: patent US20220325242A1, “IDH2 INHIBITION FOR PRODUCING T-CELLS AND B-CELLS WITH A MEMORY PHENOTYPE” (Universite de Lausanne, priority 2019, published 2022)
